Measured values taken from patent US20230127839A1, “COMPOUNDS AND COMPOSITIONS FOR TREATING CONDITIONS ASSOCIATED WITH STING ACTIVITY” (IFM Due, Inc., priority 2019, published 2023).

Target: T1, hSTING (Homo sapiens, UniProt Q86WV6, G230A/H232R/R293Q/R71H)
T1 construct: host or cells: THP1-Dual KO-IFNAR2 cells
Test: STING reporter assay (luciferase) in THP1-Dual KO-IFNAR2 cells stimulated with 2'3'cGAMP
Assay type: cell-based
Conditions: 2'3'cGAMP 15 μM, 24 h, luciferase reporter activity
Summary of the method: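 THP1-Dual KO-IFNAR2 cells (2×10E6 cells/mL) exposed to compounds at 0.0017-100 μM final, then stimulated with 2′3′cGAMP (15 μM final) delivered by Lipofectamine 2000 transfection. After 24 h at 37° C, secreted luciferase in supernatant read by QUANTI-Luc luminescence; EC50 calculated.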

T1 sequence (Q86WV6 whole entry R71H/G230A/H232R/R293Q): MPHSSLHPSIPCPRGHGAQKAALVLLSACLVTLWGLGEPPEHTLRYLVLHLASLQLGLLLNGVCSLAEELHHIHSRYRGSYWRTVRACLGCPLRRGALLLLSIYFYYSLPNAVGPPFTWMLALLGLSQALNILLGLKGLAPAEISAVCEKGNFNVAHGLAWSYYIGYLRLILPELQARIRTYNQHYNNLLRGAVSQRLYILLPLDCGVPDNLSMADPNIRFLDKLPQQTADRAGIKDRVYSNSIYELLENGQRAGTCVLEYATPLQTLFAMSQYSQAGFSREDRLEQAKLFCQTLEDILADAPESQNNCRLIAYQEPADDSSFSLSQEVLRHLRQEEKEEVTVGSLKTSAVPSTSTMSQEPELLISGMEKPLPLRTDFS

Structure (SMILES) | EC50 [nM]
O=C(Nc1ccnc(C2CCC(F)(F)CC2)c1)Nc1c[nH]c2ccccc12 [Compound 254, 1-(2-(4,4-difluorocyclohexyl)pyridin-4-yl)-3-(1H-indol-3-yl)urea] | 200 to 1000
N#Cc1cc(NC(=O)Nc2c[nH]c3ccccc23)ccc1C1CCC(F)(F)CC1 [Compound 207, 1-(3-cyano-4-(4,4-difluorocyclohexyl)phenyl)-3-(1H-indol-3-yl)urea] | 40 to 200
O=C(Nc1cnc(C2CCC(F)(F)CC2)c(Cl)c1)Nc1c[nH]c2ccc(O)cc12 [Compound 191, 1-(5-chloro-6-(4,4-difluorocyclohexyl)pyridin-3-yl)-3-(5-hydroxy-1H-indol-3-yl)urea] | 200 to 1000
COC1CCN(c2ncc(NC(=O)Nc3c[nH]c4ccccc34)cc2C)CC1 [Compound 202, 1-(1H-indol-3-yl)-3-(6-(4-methoxypiperidin-1-yl)-5-methylpyridin-3-yl)urea] | 1000 to 5000
O=C(Nc1cnc(N2CC(C(F)(F)F)C2)c(Cl)c1)Nc1c[nH]c2ccc(Cl)cc12 [Compound 233, 1-(5-chloro-1H-indol-3-yl)-3-(5-chloro-6-(3-(trifluoromethyl)azetidin-1-yl)pyridin-3-yl)urea] | 40 to 200

Continued, values first:

EC50 [nM] | Structure (SMILES)
40 to 200 | O=C(Nc1cnc(C2CCN(CC(F)(F)F)CC2)c(Cl)c1)Nc1c[nH]c2ccccc12 [Compound 279, 1-(5-chloro-6-(1-(2,2,2-trifluoroethyl)piperidin-4-yl)pyridin-3-yl)-3-(1H-indol-3-yl)urea]
200 to 1000 | O=C(Nc1ccc(N2CCN(CCC(F)(F)F)CC2)nc1)Nc1c[nH]c2ccc(F)cc12 [Compound 252, 1-(5-fluoro-1H-indol-3-yl)-3-(6-(4-(3,3,3-trifluoropropyl)piperazin-1-yl)pyridin-3-yl)urea]
